Experimental data published in ChEMBL document CHEMBL3751741, “Discovery of a potent and highly fluorescent sirtuin inhibitor” (Medchemcomm, 2015).
≈ marks a conversion by molar mass, not a printed value. Calls of active or inactive are those of the source. The rule behind the calls is not given here.

Assays:
[1] = target: T1, NAD-dependent protein deacetylase sirtuin-1 (Homo sapiens) (UniProt Q96EB6); assay: Inhibition of recombinant human N-terminal GST-tagged SIRT1 (193 to 741 residues) using human p53 derived peptides as substrate at 50 uM incubated for 45 mins by fluorescence assay
T1 sequence (whole entry): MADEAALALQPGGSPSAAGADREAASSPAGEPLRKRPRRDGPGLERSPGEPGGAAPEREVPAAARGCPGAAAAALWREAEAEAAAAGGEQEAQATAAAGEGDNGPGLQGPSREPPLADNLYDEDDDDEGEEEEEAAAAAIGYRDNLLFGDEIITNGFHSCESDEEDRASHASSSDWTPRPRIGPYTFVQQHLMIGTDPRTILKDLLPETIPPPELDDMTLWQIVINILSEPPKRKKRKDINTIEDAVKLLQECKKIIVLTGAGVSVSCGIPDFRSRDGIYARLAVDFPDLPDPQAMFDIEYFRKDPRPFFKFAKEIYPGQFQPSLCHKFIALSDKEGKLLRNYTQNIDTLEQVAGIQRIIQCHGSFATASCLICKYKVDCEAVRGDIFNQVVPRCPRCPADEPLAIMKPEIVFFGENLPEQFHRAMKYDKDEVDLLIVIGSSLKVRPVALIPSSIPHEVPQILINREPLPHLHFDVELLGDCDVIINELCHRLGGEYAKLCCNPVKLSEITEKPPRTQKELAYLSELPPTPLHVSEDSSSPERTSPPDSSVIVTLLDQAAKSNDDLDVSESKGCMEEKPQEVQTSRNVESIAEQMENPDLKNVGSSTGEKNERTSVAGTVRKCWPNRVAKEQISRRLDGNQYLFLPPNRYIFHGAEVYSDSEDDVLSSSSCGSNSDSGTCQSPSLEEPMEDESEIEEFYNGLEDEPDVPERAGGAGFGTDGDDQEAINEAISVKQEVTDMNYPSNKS

[2] = target: T2, NAD-dependent protein deacetylase sirtuin-1 (Homo sapiens, UniProt Q96EB6); assay: Inhibition of recombinant human N-terminal GST-tagged SIRT1 (193 to 741 residues) using human p53 derived peptides as substrate incubated for 45 mins by fluorescence assay
T2 sequence (Q96EB6 whole entry): T1 sequence (whole entry)

[3] = target: T3, NAD-dependent protein deacetylase sirtuin-2 (Homo sapiens) (UniProt Q8IXJ6); assay: Inhibition of recombinant human C-terminal His-tagged SIRT2 (13 to 319 residues) using human p53 derived peptides as substrate at 50 uM incubated for 45 mins by fluorescence assay
T3 sequence (whole entry): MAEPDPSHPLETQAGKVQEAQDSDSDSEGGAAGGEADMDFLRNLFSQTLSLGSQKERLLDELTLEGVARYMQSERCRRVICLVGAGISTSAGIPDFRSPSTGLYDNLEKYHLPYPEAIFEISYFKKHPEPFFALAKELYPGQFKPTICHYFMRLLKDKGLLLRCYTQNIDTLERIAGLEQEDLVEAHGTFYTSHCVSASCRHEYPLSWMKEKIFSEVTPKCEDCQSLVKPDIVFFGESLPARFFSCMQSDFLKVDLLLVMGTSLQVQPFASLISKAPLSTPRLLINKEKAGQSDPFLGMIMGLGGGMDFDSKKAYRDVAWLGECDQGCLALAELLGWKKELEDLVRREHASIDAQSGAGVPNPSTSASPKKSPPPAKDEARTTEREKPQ

[4] = target: T4, NAD-dependent protein deacetylase sirtuin-2 (Homo sapiens, UniProt Q8IXJ6); assay: Inhibition of recombinant human C-terminal His-tagged SIRT2 (13 to 319 residues) using human p53 derived peptides as substrate incubated for 45 mins by fluorescence assay
T4 sequence (Q8IXJ6 whole entry): T3 sequence (whole entry)

CCRF-CEM = assay: Antiproliferative activity against human CCRF-CEM cells assessed as cell viability at 50 uM after 72 hrs by MTS assay (reference value: 100 +/- 5.54%); format: functional; details: read-out: Activity
[5] = Antiproliferative activity against human HCT116 cells assessed as cell viability at 50 uM after 72 hrs by MTS assay (reference value: 100 +/- 6.01%); format: functional; details: HCT-116, 72 h, read-out: Activity
MDA-MB-468 = assay: Antiproliferative activity against human MDA-MB-468 cells assessed as cell viability at 50 uM after 72 hrs by MTS assay (reference value: 100 +/- 8.06%); format: functional; details: MDA-MB-468, 72 h, read-out: Activity
[6] = target: T3, NAD-dependent protein deacetylase sirtuin-2 (Homo sapiens); assay: Reversible inhibition of recombinant human C-terminal His-tagged SIRT2 (13 to 319 residues) using human p53 derived peptides as substrate at 10 uM incubated for 45 mins by fluorescence assay
[7] = target: T3, NAD-dependent protein deacetylase sirtuin-2 (Homo sapiens); assay: Competitive inhibition of recombinant human C-terminal His-tagged SIRT2 (13 to 319 residues) using human p53 derived peptides as substrate incubated for 45 mins by fluorescence assay in presence of increasing NAD+ level
[8] = Aqueous solubility of compound in water containing 0.5% DMSO by UV-spectrophotometry analysis; format: physicochemical
[9] = target: T3, NAD-dependent protein deacetylase sirtuin-2 (Homo sapiens); assay: Inhibition of SIRT2 in human HCT116 cells assessed as increase in alpha-tubulin acetylation up to 50 uM incubated for 24 hrs by Western blotting method; format: cell-based; details: HCT-116
[10] = Drug uptake in cytoplasm of human HCT116 cells at 50 uM by fluorescence microscopy; format: ADME, cell-based; details: hct-116, 50 µM
[11] = Drug uptake in cytoplasm of human CCD18 cells at 50 uM by fluorescence microscopy; format: ADME, cell-based; details: ccd18, 50 µM

Compound	inhibition [1]	IC50 [2]	inhibition [3]	IC50 [4]	inhibition [6]	inhibition [7]	solubility [8]	inhibition [9]	Drug uptake [10]	Drug uptake [11]	viability at 50 µM (CCRF-CEM)	viability at 50 µM [5]	viability at 50 µM (MDA-MB-468)
CCOC(=O)c1ccc2[nH]c(-c3ccc(N4CCOCC4)cc3)nc2c1	37.8%	57.5 µM	60.7%	52.9 µM	–	–	–	–	–	–	37.8%	54.5%	42.6%
CCOC(=O)c1ccc2[nH]c(-c3ccc(N4CCCCC4)cc3)nc2c1	–	–	93.2%	9 µM	Active	Active	59 µM (≈ 20.6 µg/mL)	Active	Active	Active	36.3%	15.9%	34%
CCOC(=O)c1ccc2[nH]c(-c3ccccc3)nc2c1	24.7%	–	36.3%	–	–	–	–	–	–	–	58.3%	29.7%	49.3%
N#C/C(=C\c1ccc(-c2cc(Cl)ccc2Cl)o1)C(=O)Nc1cccc2ncccc12	–	68 µM	–	–	–	–	–	–	–	–	–	–	–

Second part, led by results:

inhibition [1]	IC50 [2]	inhibition [3]	IC50 [4]	inhibition [6]	inhibition [7]	solubility [8]	inhibition [9]	Drug uptake [10]	Drug uptake [11]	Compound	viability at 50 µM (CCRF-CEM)	viability at 50 µM [5]	viability at 50 µM (MDA-MB-468)
–	–	26%	–	–	–	–	–	–	–	CCOC(=O)c1ccc2[nH]c(-c3ccc(OC)cc3)nc2c1	87.4%	75.6%	82.8%
–	–	45.2%	–	–	–	–	–	–	–	CCOC(=O)c1ccc2[nH]c(-c3ccc(C)cc3)nc2c1	61.2%	48.4%	89.1%
–	–	42.9%	–	–	–	–	–	–	–	CCOC(=O)c1ccc2[nH]c(-c3ccc(O)cc3)nc2c1	85.5%	77.1%	76.5%
–	–	50.2%	–	–	–	–	–	–	–	CCOC(=O)c1ccc2[nH]c(-c3ccc(C(C)(C)C)cc3)nc2c1	82.2%	54.2%	54.6%
–	–	87.5%	13.6 µM	–	–	–	–	–	–	CCOC(=O)c1ccc2[nH]c(-c3ccc(N(C)C)cc3)nc2c1	49.5%	29.7%	31.1%
